Reference: US20260265259A1, “SUBSTITUTED 6-IMIDAZOPYRIDAZINE IL-17A MODULATORS AND USES THEREOF” (DICE ALPHA, INC., priority 2023, published 2026)
Where two headings read alike, the source gives them in different places.

Tested on: IL-17A/A
Assay: IL-17A/A HEK-Blue cell assay
Type: cell-based
Settings: IL-17A/A inhibition, HEK-Blue IL-17A reporter cell line, IL17A/A 5 ng/mL
Method: The HEK-Blue IL-17A reporter cell line (Fisher #NC1408637) was used for cell-based IL-17A/A inhibition assays. Cells were grown and prepared for assays according to the manufacturer's instructions. This cell line consists of HEK 293 cells that were designed to expressed IL-17RA, IL-17RC, and the Act1 adapter molecule, the combination of which, when stimulated by IL-17A/A or IL17A/F activates a NFκB promoter and drives expression of the recombinant Secreted Alkaline Phosphatase (SEAP) gene. Media from the cells is then added to a development reagent (Quanti-Blue Substrate, Fisher #NC9711613), and read at A630.
Compounds were dispensed in DMSO to an empty clear 384-well tissue culture plate in a titration ranging from 10 μM to 27 pM, with DMSO added to every well to a final concentration of 0.1%. Cells were then added to the plate (45 μL/well at a concentration of 280,000 cells/mL). IL17A/A (Genscript #Z03228) or IL17A/F (R&D Systems) was added to the plate to a final concentration of 5 ng/mL and a final well volume of 50 μL. The cells, compound, and IL-17A/A or IL17A/F were then incubated for 20 hours before media was removed for SEAP analysis. The resulting inhibition curve was then analyzed using Dotmatics' integrated 4-parameter fit screening protocol to generate IC50 values.

[1] = HEK-Blue, 20 h, SEAP read at A630, read-out: AA IC50
[2] = 20 hours, SEAP read at A630, read-out: AA IC50

IC50 [1] [nM]	IC50 [2] [nM]	SMILES
100 to 1000	–	CCn1nccc1C(=O)N[C@H](c1cn2nc(C[C@H]3C[C@@H](C(F)(F)F)CNC3=O)c(C3CCN(C)CC3)cc2n1)C1CCC(F)(F)CC1 [Compound 60]
100 to 1000	–	CCn1nccc1C(=O)N[C@H](c1cn2nc(C[C@H]3C[C@@H](C(F)(F)F)CNC3=O)c(C3CCN(C)C3)cc2n1)C1CCC(F)(F)CC1 (stereo partly drawn) [Compound 61]
–	100 to 1000	CCn1nccc1C(=O)N[C@H](c1cn2nc(C[C@H]3C[C@@H](C(F)(F)F)CNC3=O)c(C3CCN(C)C3)cc2n1)C1CCC(F)(F)CC1 (stereo partly drawn) [Compound 62]
< 100	–	CCn1nccc1C(=O)N[C@H](c1cn2nc(C[C@H]3C[C@@H](C(F)(F)F)CNC3=O)c(C3CCCOC3)cc2n1)[C@H]1CCCC(F)(F)C1 (stereo partly drawn) [Compound 63]
< 100	–	CCn1nccc1C(=O)N[C@H](c1cn2nc(C[C@H]3C[C@@H](C(F)(F)F)CNC3=O)c(C3CCCOC3)cc2n1)[C@@H]1CCCC(F)(F)C1 (stereo partly drawn) [Compound 64]
–	< 100	CCn1nccc1C(=O)N[C@H](c1cn2nc(C[C@H]3C[C@@H](C(F)(F)F)CNC3=O)c(C3CCCOC3)cc2n1)[C@H]1CCCC(F)(F)C1 (stereo partly drawn) [Compound 65]
–	< 100	CCn1nccc1C(=O)N[C@H](c1cn2nc(C[C@H]3C[C@@H](C(F)(F)F)CNC3=O)c(C3CCCOC3)cc2n1)[C@@H]1CCCC(F)(F)C1 (stereo partly drawn) [Compound 66]
< 100	–	CCn1nccc1C(=O)N[C@H](c1cn2nc(C[C@H]3C[C@@H](C(F)(F)F)CNC3=O)c(C3CCOC3)cc2n1)[C@H]1CCCC(F)(F)C1 (stereo partly drawn) [Compound 67]
< 100	–	CCn1nccc1C(=O)N[C@H](c1cn2nc(C[C@H]3C[C@@H](C(F)(F)F)CNC3=O)c(C3CCOC3)cc2n1)[C@@H]1CCCC(F)(F)C1 (stereo partly drawn) [Compound 68]
< 100	–	O=C(N[C@H](c1cn2nc(C[C@H]3C[C@@H](C(F)(F)F)CNC3=O)c(C3CCOC3)cc2n1)[C@H]1CCCC(F)(F)C1)c1nonc1C1CC1 (stereo partly drawn) [Compound 69]
< 100	–	O=C(N[C@H](c1cn2nc(C[C@H]3C[C@@H](C(F)(F)F)CNC3=O)c(C3CCOC3)cc2n1)[C@@H]1CCCC(F)(F)C1)c1nonc1C1CC1 (stereo partly drawn) [Compound 70]
–	< 100	CCn1nccc1C(=O)N[C@H](c1cn2nc(C[C@H]3C[C@@H](C(F)(F)F)CNC3=O)c(C3CCOC3)cc2n1)[C@H]1CCCC(F)(F)C1 (stereo partly drawn) [Compound 71]
–	< 100	CCn1nccc1C(=O)N[C@H](c1cn2nc(C[C@H]3C[C@@H](C(F)(F)F)CNC3=O)c(C3CCOC3)cc2n1)[C@@H]1CCCC(F)(F)C1 (stereo partly drawn) [Compound 72]
–	< 100	O=C(N[C@H](c1cn2nc(C[C@H]3C[C@@H](C(F)(F)F)CNC3=O)c(C3CCOC3)cc2n1)[C@H]1CCCC(F)(F)C1)c1nonc1C1CC1 (stereo partly drawn) [Compound 73]
–	< 100	O=C(N[C@H](c1cn2nc(C[C@H]3C[C@@H](C(F)(F)F)CNC3=O)c(C3CCOC3)cc2n1)[C@@H]1CCCC(F)(F)C1)c1nonc1C1CC1 (stereo partly drawn) [Compound 74]
< 100	–	CC(C)n1nccc1C(=O)N[C@H](c1cn2nc(C[C@H]3C[C@@H](C(F)(F)F)CNC3=O)c(C3CCOCC3)cc2n1)C1CCC(F)(F)CC1 [Compound 75]
< 100	–	CCn1nccc1C(=O)N[C@H](c1cn2nc(C[C@H]3C[C@@H](C(F)(F)F)CNC3=O)c(C3CCCCC3)cc2n1)C1CCC(F)(F)CC1 [Compound 76]
< 100	–	CCn1nccc1C(=O)N[C@H](c1cn2nc(C[C@H]3C[C@@H](C(F)(F)F)CNC3=O)c(N3CCC(OC)C3)cc2n1)C1CCC(F)(F)CC1 (stereo partly drawn) [Compound 77]
–	< 100	CCn1nccc1C(=O)N[C@H](c1cn2nc(C[C@H]3C[C@@H](C(F)(F)F)CNC3=O)c(N3CCC(OC)C3)cc2n1)C1CCC(F)(F)CC1 (stereo partly drawn) [Compound 78]
< 100	–	CCn1nccc1C(=O)N[C@H](c1cn2nc(C[C@H]3C[C@@H](C(F)(F)F)CNC3=O)c(N3CC(OC)C3)cc2n1)C1CCC(F)(F)CC1 [Compound 79]

IC50 [1] [nM]	IC50 [2] [nM]	SMILES
< 100	–	CCn1nccc1C(=O)N[C@H](c1cn2nc(C[C@H]3C[C@@H](C(F)(F)F)CNC3=O)c(N3CCN(C4CC4)CC3)cc2n1)C1CCC(F)(F)CC1 [Compound 80]
< 100	–	CCn1nccc1C(=O)N[C@H](c1cn2nc(C[C@H]3C[C@@H](C(F)(F)F)CNC3=O)c(N3CCOC4(CC4)C3)cc2n1)C1CCC(F)(F)CC1 [Compound 81]
< 100	–	CCn1nccc1C(=O)N[C@H](c1cn2nc(C[C@H]3C[C@@H](C(F)(F)F)CNC3=O)c(N3CCN(C)C4(CC4)C3)cc2n1)C1CCC(F)(F)CC1 [Compound 82]
< 100	–	CCn1nccc1C(=O)N[C@H](c1cn2nc(C[C@H]3C[C@@H](C(F)(F)F)CNC3=O)c(C3CCCO3)cc2n1)C1CCC(F)(F)CC1 (stereo partly drawn) [Compound 83]
< 100	–	CCn1nccc1C(=O)N[C@H](c1cn2nc(C[C@H]3C[C@@H](C(F)(F)F)CNC3=O)c(C3CCCCO3)cc2n1)C1CCC(F)(F)CC1 (stereo partly drawn) [Compound 84]
–	< 100	CCn1nccc1C(=O)N[C@H](c1cn2nc(C[C@H]3C[C@@H](C(F)(F)F)CNC3=O)c(C3CCCCO3)cc2n1)C1CCC(F)(F)CC1 (stereo partly drawn) [Compound 85]
< 100	–	CCn1nccc1C(=O)N[C@H](c1cn2nc(C[C@H]3C[C@@H](C(F)(F)F)CNC3=O)c(C3CCOCC3)cc2n1)C1CCC(C)CC1 (stereo partly drawn) [Compound 86]
< 100	–	CCn1nccc1C(=O)N[C@H](c1cn2nc(C[C@H]3C[C@@H](C(F)(F)F)CNC3=O)c(C3CCOC(C)(C)C3)cc2n1)C1CCC(F)(F)CC1 (stereo partly drawn) [Compound 87]
–	< 100	CCn1nccc1C(=O)N[C@H](c1cn2nc(C[C@H]3C[C@@H](C(F)(F)F)CNC3=O)c(C3CCOC(C)(C)C3)cc2n1)C1CCC(F)(F)CC1 (stereo partly drawn) [Compound 88]
100 to 1000	–	CCn1ncnc1C(=O)N[C@H](c1cn2nc(C[C@H]3C[C@@H](C(F)(F)F)CNC3=O)c(C3CCOCC3)cc2n1)C1CCC(F)(F)CC1 [Compound 89]
< 100	–	CC(C)n1ncnc1C(=O)N[C@H](c1cn2nc(C[C@H]3C[C@@H](C(F)(F)F)CNC3=O)c(C3CCOCC3)cc2n1)C1CCC(F)(F)CC1 [Compound 90]
< 100	–	O=C(N[C@H](c1cn2nc(C[C@H]3C[C@@H](C(F)(F)F)CNC3=O)c(C3CCOCC3)cc2n1)C1CCC(F)(F)CC1)c1ccnn1C1CC1 [Compound 91]
100 to 1000	–	O=C(N[C@H](c1cn2nc(C[C@H]3C[C@@H](C(F)(F)F)CNC3=O)c(C3CCOCC3)cc2n1)C1CCC(F)(F)CC1)c1ccnn1C1CC1(F)F (stereo partly drawn) [Compound 92]
–	< 100	O=C(N[C@H](c1cn2nc(C[C@H]3C[C@@H](C(F)(F)F)CNC3=O)c(C3CCOCC3)cc2n1)C1CCC(F)(F)CC1)c1ccnn1C1CC1(F)F (stereo partly drawn) [Compound 93]
100 to 1000	–	CCn1nccc1C(=O)N[C@H](c1cn2nc(C[C@H]3C[C@@H](C(F)(F)F)CNC3=O)c(C3COCCO3)cc2n1)C1CCC(F)(F)CC1 (stereo partly drawn) [Compound 94]
–	< 100	CCn1nccc1C(=O)N[C@H](c1cn2nc(C[C@H]3C[C@@H](C(F)(F)F)CNC3=O)c(C3COCCO3)cc2n1)C1CCC(F)(F)CC1 (stereo partly drawn) [Compound 95]
–	> 1000	CCn1nccc1C(=O)N[C@H](c1cn2nc(C[C@@H]3C[C@@H](C(F)(F)F)CNC3=O)c(N3CCOCC3C)cc2n1)C1CCC(F)(F)CC1 (stereo partly drawn) [Compound 96]
–	< 100	CCn1nccc1C(=O)N[C@H](c1cn2nc(C[C@@H]3C[C@@H](C(F)(F)F)CNC3=O)c(N3CCOCC3C)cc2n1)C1CCC(F)(F)CC1 (stereo partly drawn) [Compound 97]
100 to 1000	–	CCn1nccc1C(=O)N[C@H](c1cn2nc(C[C@H]3C[C@@H](C(F)(F)F)CNC3=O)c(N3CC(O)C3)cc2n1)C1CCC(F)(F)CC1 [Compound 98]
